Key:
Assay type in all cases: biochemical
[1] = molecular target: T1, chDHRSX (Chinese hamster DHRSX) (Cricetulus griseus, UniProt A0A9J7GKV7); assay: LC-MS of dolichol-18 formation, Michaelis-Menten fit; details: 4 μM dolichal mixture, pH 8.0, 37 °C, PC/PE lipids
T1 construct: gene LOC113838539; N-terminal 6xHis tag, pET15b, E. coli BL21(DE3), HisTrap native purification
T1 sequence (A0A9J7GKV7 1-328): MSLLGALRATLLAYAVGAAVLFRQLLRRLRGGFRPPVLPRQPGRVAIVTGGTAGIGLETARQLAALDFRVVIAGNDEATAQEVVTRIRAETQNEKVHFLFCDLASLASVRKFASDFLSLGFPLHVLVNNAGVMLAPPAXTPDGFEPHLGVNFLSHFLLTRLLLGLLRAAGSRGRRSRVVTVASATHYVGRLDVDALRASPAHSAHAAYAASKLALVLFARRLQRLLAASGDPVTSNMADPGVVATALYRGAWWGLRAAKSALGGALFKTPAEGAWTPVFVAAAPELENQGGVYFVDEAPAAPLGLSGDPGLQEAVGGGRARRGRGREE
From the text: LC-MS of dolichol-18 formation, Michaelis-Menten fit on chDHRSX (Chinese hamster DHRSX)

[2] = molecular target: T2, hDHRSX (human DHRSX) (Homo sapiens, UniProt Q8N5I4); assay: LC-MS of dolichol-18 formation in membranes; details: dolichal mixture 5 μg/ml, 5 mM NADPH, pH 8.0, 37 °C, 2 h
T2 construct: pUB83 hDHRSX-N-His lentiviral expression in DHRSX-null Lec5 and Lec9 CHO cells; membrane preparation
T2 sequence (Q8N5I4 2-330): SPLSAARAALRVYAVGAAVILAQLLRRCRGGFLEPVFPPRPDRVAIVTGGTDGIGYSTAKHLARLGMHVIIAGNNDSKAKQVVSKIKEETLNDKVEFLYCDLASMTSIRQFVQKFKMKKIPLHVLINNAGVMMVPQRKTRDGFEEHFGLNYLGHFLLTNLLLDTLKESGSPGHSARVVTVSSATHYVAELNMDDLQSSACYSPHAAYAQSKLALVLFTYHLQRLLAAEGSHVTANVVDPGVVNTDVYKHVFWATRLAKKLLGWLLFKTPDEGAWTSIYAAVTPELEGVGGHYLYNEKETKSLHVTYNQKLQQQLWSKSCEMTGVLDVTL

[3] = molecular target: T1, chDHRSX (Chinese hamster DHRSX); assay: LC-MS of polyprenal-18 formation, Michaelis-Menten fit; details: 4 μM polyprenol mixture, pH 8.0, 37 °C, PC/PE lipids
From the text: LC-MS of polyprenal-18 formation, Michaelis-Menten fit on chDHRSX (Chinese hamster DHRSX)

[4] = molecular target: T2, hDHRSX (human DHRSX); assay: LC-MS of polyprenal-18 formation in membranes; details: polyprenol mixture 5 μg/ml, 5 mM NAD+, pH 8.0, 37 °C, 2 h

NC(=O)C1=CN([C@@H]2O[C@H](COP(=O)(O)OP(=O)(O)OC[C@H]3O[C@@H](n4cnc5c(N)ncnc54)[C@H](O)[C@@H]3O)[C@@H](O)[C@H]2O)C=CC1 [NADH]
Km ([1]; read-out: NADH): 34 ± 7 µM

NC(=O)C1=CN([C@@H]2O[C@H](COP(=O)(O)OP(=O)(O)OC[C@H]3O[C@@H](n4cnc5c(N)ncnc54)[C@H](OP(=O)(O)O)[C@@H]3O)[C@@H](O)[C@H]2O)C=CC1 [NADPH]
LC-MS of dolichol-18 formation in membranes [2]: expression of hDHRSX strongly increased dolichol formation | Km ([1]; read-out: NADPH): 26 ± 8 µM

NC(=O)c1ccc[n+]([C@@H]2O[C@H](COP(=O)(O)OP(=O)(O)OC[C@H]3O[C@@H](n4cnc5c(N)ncnc54)[C@H](OP(=O)(O)O)[C@@H]3O)[C@@H](O)[C@H]2O)c1 [NADP^+]
Km ([3]; read-out: NADP^+): 96 ± 43 µM

NC(=O)c1ccc[n+]([C@@H]2O[C@H](COP(=O)(O)OP(=O)(O)OC[C@H]3O[C@@H](n4cnc5c(N)ncnc54)[C@H](O)[C@@H]3O)[C@@H](O)[C@H]2O)c1 [NAD^+]
Km ([3]; read-out: NAD^+): 81 ± 36 µM | LC-MS of polyprenal-18 formation in membranes [4]: expression of hDHRSX in Lec5 and Lec9 cells increased the formation of polyprenal

From paper PMC11607601, “Absence of the dolichol synthesis gene DHRSX leads to N-glycosylation defects in Lec5 and Lec9 Chinese hamster ovary cells” (The Journal of Biological Chemistry, 2024)
